Earlier results in US7847105B2, “Methods and compounds for preparing CC-1065 analogs” (Medarex, Inc., priority 2005, dated 2010).

How the values were obtained:
[1] = tested on: experimental animals; conditions: reason why it cannot be used in humans
[2] = both in vitro and in experimental animals

CC-1065
toxicity in experimental animals [1]: causes delayed death | antitumor and antimicrobial activity [2]: potent antitumor and antimicrobial activity
